Data taken from patent US20110313164A1, “LITHIUM DERIVATIVES OF PYRROLOQUINOLINE QUINONE AND PREPARATION METHOD THEREOF” (priority 2009, published 2011).

System: APP/PSI transgenic mice
Assay: cognitive ability of APP/PSI transgenic mice (FIG. 1)
Assay type: in vivo
Settings: intragastric administration, 20-week-old mice, 1.5 and 6 mg/kg of weight
Description: Intragastric administration is applied to 20-week-old mice. Wiletype is a wiletype control group; Ctrl is a transgenic control group; DNP is a […] group (1.5 mg/kg of weight); PQQLi 1.5 is a lithium pyrroloquinoline-quinone salt group (1.5 mg/kg of weight); PQQLi 6 is a lithium pyrroloquinoline-quinone group (6 mg/kg of weight). *p<0.05; ** p<0.005; NS: […].

Q: O=C(O)c1cc(C(=O)O)c2c(n1)C(=O)C(=O)c1cc(C(=O)[O-])[nH]c1-2.[Li+] [PQQLi, 4,5-dihydroxy-1H-pyrrole[2,3-f]chinoline-2,7,9-tricarboxylic acid, lithium salt] was tested. Which cognitive ability did it give?
A: promotes the cognitive ability
